Laboratory results published in patent US20090264401A1, “SUBSTITUTED PYRIMIDIN-5-CARBOXAMIDES 281” (AstraZeneca AB, priority 2008, published 2009).

Each compound was assayed against T1, human 11βHSD1 enzyme (Homo sapiens, UniProt P28845) (assay: 11βHSD1 cortisone to cortisol conversion, competitive HTRF assay). Conditions: human 11-βHSD; test concentration of 30 μM of compound.
T1 construct: baculovirus expressed N terminal 6-His tagged full length human 11βHSD1 enzyme; 6-His (N); made in house
T1 sequence (P28845 whole entry): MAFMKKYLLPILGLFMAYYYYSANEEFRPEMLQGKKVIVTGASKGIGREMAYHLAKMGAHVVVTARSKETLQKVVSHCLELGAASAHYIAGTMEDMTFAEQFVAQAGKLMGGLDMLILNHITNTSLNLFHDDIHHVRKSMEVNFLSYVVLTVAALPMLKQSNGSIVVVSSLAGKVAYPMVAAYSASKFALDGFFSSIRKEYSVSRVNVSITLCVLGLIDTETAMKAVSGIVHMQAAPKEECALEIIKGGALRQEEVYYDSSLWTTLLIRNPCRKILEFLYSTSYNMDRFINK
Type: biochemical
Procedure, shortened: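 Enzyme was baculovirus-expressed, N-terminal 6-His-tagged full-length human 11βHSD1, purified on a copper chelate column. Compounds were added in buffer containing 1% DMSO at 10-fold final concentration.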

Going from `CCCSc1nc(N2CCN(C(C)=O)CC2)ncc1C(=O)N[C@H]1C2CC3CC1C[C@@](O)(C3)C2` [Example 26, 2-(4-Acetylpiperazin-1-yl)-N-[(2r,5 s)-5-hydroxyadamantan-2-yl]-4-propylsulfanylpyrimidine-5-carboxamide] to `COCCN1CCN(c2ncc(C(=O)N[C@H]3C4CC5CC3C[C@@](O)(C5)C4)c(C3CCC3)n2)CC1` [Example 87, 4-cyclobutyl-N-[(2r,5s)-5-hydroxyadamantan-2-yl]-2-[4-(2-methoxyethyl)piperazin-1-yl]pyrimidine-5-carboxamide], the inhibition at 30 µM rises from 89% to 95.7%.

Going from `C[C@@H]1CN(c2ncc(C(=O)N[C@H]3C4CC5CC3C[C@@](O)(C5)C4)c(C3CCC3)n2)C[C@H](C)N1` [Example 99, 4-cyclobutyl-2-[(3R,5S)-3,5-dimethylpiperazin-1-yl]-N-[(2r,5s)-5-hydroxyadamantan-2-yl]pyrimidine-5-carboxamide] to `O=C(N[C@H]1C2CC3CC1C[C@@](O)(C3)C2)c1cnc(N2CC(F)(F)C2)nc1C1CCC1` [Example 89, 4-cyclobutyl-2-(3,3-difluoroazetidin-1-yl)-N-[(2r,5s)-5-hydroxyadamantan-2-yl]pyrimidine-5-carboxamide], the inhibition at 30 µM rises from 93.3% to 95.5%.

Compared with `O=C(N[C@H]1C2CC3CC1C[C@@](O)(C3)C2)c1cnc(OC2CCC2)nc1C1CCC1` [Example 108, 4-cyclobutyl-2-(cyclobutyloxy)-N-[(2r,5s)-5-hydroxyadamantan-2-yl]pyrimidine-5-carboxamide], `O=C(N[C@H]1C2CC3CC1C[C@@](O)(C3)C2)c1cnc(OC2CCC2)nc1C1CC1` [Example 75, 2-(Cyclobutyloxy)-4-cyclopropyl-N-[(2r,5 s)-5-hydroxyadamantan-2-yl]pyrimidine-5-carboxamide] is higher in inhibition at 30 µM: 96% for the first, 98.6% for the second.

Compared with `O=C(N[C@H]1C2CC3CC1C[C@@](O)(C3)C2)c1cnc(N2CC3CC2CS3)nc1C1CC1` [Example 46, 4-Cyclopropyl-N-[(2r,5s)-5-hydroxyadamantan-2-yl]-2-(3-thia-6-azabicyclo[2.2.1]heptan-6-yl)pyrimidine-5-carboxamide], `O=C(N[C@H]1C2CC3CC1C[C@@](O)(C3)C2)c1cnc(N2CC3CC2CS3(=O)=O)nc1C1CC1` [Example 48, 4-Cyclopropyl-2-(3,3-dioxo-3λ6-thia-6-azabicyclo[2.2.1]heptan-6-yl)-N-[(2r,5 s)-5-hydroxyadamantan-2-yl]pyrimidine-5-carboxamide] is lower in inhibition at 30 µM: 104% for the first, 100% for the second.

Compared with `CSc1ncc(C(=O)N[C@H]2C3CC4CC2C[C@@](O)(C4)C3)c(C2CCCCC2)n1` [Example 195, 4-Cyclohexyl-N-[(2r,5 s)-5-hydroxyadamantan-2-yl]-2-(methylthio)pyrimidine-5-carboxamide], `CSc1ncc(C(=O)N[C@H]2C3CC4CC2C[C@@](O)(C4)C3)c([C@@H]2CCCO2)n1` [Example 177, N-[(2r,5s)-5-hydroxyadamantan-2-yl]-2-methylsulfanyl-4-[(2S)-oxolan-2-yl]pyrimidine-5-carboxamide] is lower in inhibition at 30 µM: 103% for the first, 95.8% for the second.

Compared with `O=C(N[C@H]1C2CC3CC1C[C@@](O)(C3)C2)c1cnc(NC2CCC2)nc1C1CCC1` [Example 98, N-[(2r,5s)-5-hydroxyadamantan-2-yl] 4-cyclobutyl-2-(cyclobutylamino)pyrimidine-5-carboxamide], `O=C(N[C@H]1C2CC3CC1C[C@@](O)(C3)C2)c1cnc(NC2CCC2)nc1C1CC1` [Example 54, (cyclobutylamino)-4-cyclopropyl-N-[(2r,5s)-5-hydroxyadamantan-2-yl]pyrimidine-5-carboxamide] is higher in inhibition at 30 µM: 97.8% for the first, 102% for the second.

Going from `CCOc1nc(NC2COC2)ncc1C(=O)N[C@H]1C2CC3CC1C[C@@](O)(C3)C2` [Example 211, 4-ethoxy-N-[(2r,5s)-5-hydroxytricyclo[3.3.1.13,7]dec-2-yl]-2-(oxetan-3-ylamino)pyrimidine-5-carboxamide] to `O=C(N[C@H]1C2CC3CC1C[C@@](O)(C3)C2)c1cnc(NC2CC2)nc1C1CCC1` [Example 88, 4-cyclobutyl-2-(cyclopropylamino)-N-[(2r,5s)-5-hydroxyadamantan-2-yl]pyrimidine-5-carboxamide], the inhibition at 30 µM falls from 98.4% to 94.9%.

Compared with `O=C(N[C@H]1C2CC3CC1C[C@@](O)(C3)C2)c1cnc(N2CC[S+]([O-])CC2)nc1C1CCCCC1` [Example 197, 4-Cyclohexyl-N-[(2r,5 s)-5-hydroxyadamantan-2-yl]-2-(1-oxidothiomorpholin-4-yl)pyrimidine-5-carboxamide], `O=C(N[C@H]1C2CC3CC1C[C@@](O)(C3)C2)c1cnc(N2CC[S+]([O-])CC2)nc1C1CCC1` [Example 82, 4-Cyclobutyl-N-[(2r,5 s)-5-hydroxyadamantan-2-yl]-2-(1-oxo-1,4-thiazinan-4-yl)pyrimidine-5-carboxamide] is lower in inhibition at 30 µM: 97.8% for the first, 95.2% for the second.

Going from `CC(C)Oc1ncc(C(=O)N[C@H]2C3CC4CC2C[C@@](O)(C4)C3)c(C2CC2)n1` [Example 76, 4-cyclopropyl-N-[(2r,5s)-5-hydroxyadamantan-2-yl]-2-isopropoxypyrimidine-5-carboxamide] to `CC(C)Oc1ncc(C(=O)N[C@H]2C3CC4CC2C[C@@](O)(C4)C3)c([C@H]2CCCO2)n1` [Example 176], the inhibition at 30 µM rises from 96.1% to 97.9%.

Going from `Cc1nc(N2CCOCC2)ncc1C(=O)NC1C2CC3CC(C2)CC1C3` (stereo not drawn) [Example 15, N-(2-adamantyl)-4-methyl-2-morpholin-4-ylpyrimidine-5-carboxamide] to `C[C@H]1COCCN1c1ncc(C(=O)N[C@H]2C3CC4CC2C[C@@](O)(C4)C3)c(C2CCCC2)n1` [Example 123], the inhibition at 30 µM rises from 95.4% to 99.1%.

Going from `O=C(N[C@H]1C2CC3CC1C[C@@](O)(C3)C2)c1cnc(N2CCSCC2)nc1C1CCCCC1` [Example 196, 4-Cyclohexyl-N-[(2r,5 s)-5-hydroxyadamantan-2-yl]-2-thiomorpholin-4-ylpyrimidine-5-carboxamide] to `CC(C)(CO)Nc1ncc(C(=O)N[C@H]2C3CC4CC2C[C@@](O)(C4)C3)c(C2CCC2)n1` [Example 95, 4-cyclobutyl-N-[(2r,5s)-5-hydroxyadamantan-2-yl]-2-[(2-hydroxy-1,1-dimethylethyl)amino]pyrimidine-5-carboxamide], the inhibition at 30 µM falls from 99.8% to 97.3%.

First: O=C(N[C@H]1C2CC3CC1C[C@@](O)(C3)C2)c1cnc(NC2CC2)nc1[C@H]1CCCO1 [Example 170, 2-(cyclopropylamino)-N-[(2r,5s)-5-hydroxyadamantan-2-yl]-4-[(2R)-oxolan-2-yl]pyrimidine-5-carboxamide]
Second: O=C(N[C@H]1C2CC3CC1C[C@@](O)(C3)C2)c1cnc(NC2CC2)nc1C1CCCO1 (stereo partly drawn) [Example 160, 2-(cyclopropylamino)-N-[(2r,5s)-5-hydroxyadamantan-2-yl]-4-(oxolan-2-yl)pyrimidine-5-carboxamide]
The inhibition at 30 µM of the first is lower: 94.4% for the first, 104% for the second.

Compared with `Cc1ncc(C(=O)N[C@H]2C3CC4CC2C[C@@](O)(C4)C3)c(-c2ccccc2Cl)n1` [Example 189, 4-(2-Chlorophenyl)-N-[(2r,5s)-5-hydroxyadamantan-2-yl]-2-methylpyrimidine-5-carboxamide], `CC(C)(C)c1ncncc1C(=O)N[C@H]1C2CC3CC1C[C@@](O)(C3)C2` [Example 7] is lower in inhibition at 30 µM: 95.5% for the first, 88.3% for the second.

Going from `CC(C)Oc1nc(N2C[C@@H](C)O[C@@H](C)C2)ncc1C(=O)N[C@H]1C2CC3CC1C[C@@](O)(C3)C2` [Example 214, 2-[(2R,6S)-2,6-dimethylmorpholin-4-yl]-N-[(2r,5s)-5-hydroxytricyclo[3.3.1.13,7]dec-2-yl]-4-(1-methylethoxy)pyrimidine-5-carboxamide] to `O=C(N[C@H]1C2CC3CC1C[C@@](O)(C3)C2)c1cncnc1C1CC1` [Example 3, 4-cyclopropyl-N-[(2r,5s)-5-hydroxyadamantan-2-yl]pyrimidine-5-carboxamide], the inhibition at 30 µM rises from 103% to 106%.

`O=C(c1cnc(N2CCOCC2)nc1C1CC1)N1CCC(c2cccnc2)C1` (stereo not drawn) [Example 79, (4-Cyclopropyl-2-morpholinopyrimidin-5-yl)(3-(pyridin-3-yl)pyrrolidin-1-yl)methanone] was tested, and the inhibition at 30 µM was 89.7%.

Same assay, conditions: recombinant N terminal 6-His tagged full length human 11βHSD1; cortisone 160 nM; 25 minutes at 37° C.

In the case of `O=C(N[C@H]1C2CC3CC1C[C@@](O)(C3)C2)c1cncnc1C1CC1` [Example 3, 4-cyclopropyl-N-[(2r,5s)-5-hydroxyadamantan-2-yl]pyrimidine-5-carboxamide], the IC50 is reported as 370 nM.
